Experimental data taken from patent US4188378A, “Anticancer and antiviral activity of 9-β-D-arabinofuranosyl-2-fluoroadenine” (The United States of America as represented by the …, priority 1978, dated 1980).

Columns and labels:
[1] = background statement; cited from earlier work
[2] = tested on: leukemias; conditions: background statement; cited from earlier work
[3] = tested on: adenosine deaminase; conditions: cited from earlier work
[4] = tested on: Leukemia L1210; test: Therapeutic activity against leukemia L1210 implanted i.p. in mice; type: in vivo
Excerpt: (§1) Inhibition of DNA polymerase is considered to be responsible for the biologic activity of AraA. The levels of F-AraATP attainable in leukemia L1210 cells in mice from the administration of 2-F-AraA are much higher than the level of AraATP atainable in these cells after administration of AraA. As a result of the maintenance of these levels of the inhibitor, F-AraATP, in them, the leukemia cells are effectively destroyed in animals. […] 2-F-AraA was also active against leukemia L1210 when administered by the oral route.
^a 10^5 L1210 ascites cells implanted i.p. on day 0.
^b Treatments reported were selected from a range of dose levels from
lethally toxic to apparently nontoxic.
more than 16% (1/6 treated mice) dying without gross evidence of
progressive leukemia (splenomegaly), except those treated orally, in whic
^c i.p. = intraperitoneal; oral = drug administered directly into
^d % ILS = % increase in life span, compared to untreated control;
excluding 60day survivors.
^e Based on median day of death in dying animals only. Figures in
parentheses based on % survivors.
2-F-AraA was given i.p. or orally on the basis of average mouse body weight. Therapeutic activity based on observed increase in median life span of treated animals over untreated controls and on estimates of the number of viable L1210 cells present at the end of treatment is summarized in Table 2.

[5] = tested on: DNA polymerase; test: Inhibition of DNA polymerase by the triphosphate; type: biochemical; conditions: triphosphate compared with Ara-ATP
Excerpt: as §1

Compound	antiviral activity [1]	antileukemic activity [2]	deamination of AraA in vivo to AraH [3]	activity against leukemia L1210 ([4]; AraA under similar conditions)	leukemia cells at the end of treatment ([4]; AraA, 10^5 cells at the beginning)	therapeutic activity against L1210 leukemia ([4]; in the absence of adenosine deaminase inhibitors)	inhibition of DNA polymerase [5]
Nc1ncnc2c1ncn2[C@@H]1O[C@H](CO)[C@@H](O)[C@@H]1O [AraA, 9-β-D-arabinofuranosyladenine, reference compound]	potent antiviral agent	little potential	rapid deamination	essentially devoid of activity	3×10^8 cells	no significant therapeutic activity	
O=c1[nH]cnc2c1ncn2[C@@H]1O[C@H](CO)[C@@H](O)[C@@H]1O [AraH, 9-β-D-arabinofuranosylhypoxanthine]	some antiviral	no antileukemic activity					
Nc1nc(F)nc2c1ncn2[C@@H]1O[C@H](COP(=O)(O)OP(=O)(O)OP(=O)(O)O)[C@@H](O)[C@@H]1O [F-AraATP]							as potent an inhibitor of DNA polymerase as Ara-ATP
